Data as given in patent publication US20130309184A1, “1,3-DIOXAN-5-ONE COMPOUNDS” (MERCK PATENT GMBH, priority 2011, published 2013).

Legend:
Assay type in all cases: physicochemical
[1] = Absorption strength (absorption spectrum in ethanol); parameters: λmax: unit not given here; details: for λmax: absorption maximum, dilute solution in ethanol; for E1% value: extinction at the absorption maximum extrapolated to 1 g/100 ml; for E1% value / Half-value width: ethanol; for Half-value width: half-value width of the absorption band
Protocol: The measure used for the absorption strength is the so-called E1% value, and the half-value width of the absorption band in relation to the absorption maximum λmax indicated. The E1% value indicates the extinction at the absorption maximum extrapolated to a concentration of 1 g/100 ml. To this end, an absorption spectrum of the substance in ethanol is recorded in dilute solution. The values are compared with the reference spectra of curcumin and beta-carotene.

[2] = Solubility determination in phenethyl benzoate (X-Tend 226)
Protocol: The solubility determination was carried out in phenethyl benzoate (X-Tend 226): […]

[3] = Thermal stability by thermogravimetry; details: for Temperature at which 98% of the weight were still present: TGA, RT to 800° C., heating rate 10K/min; for thermal stabilities: verbal assessment, high-temperature processing possible without decomposition
Protocol: The thermal stability is determined with the aid of the thermogravimetry method (instrument TGA Q5000 V3.10 Build 258, temperature range RT to 800° C., heating rate 10K/min).

[4] = Fluorescence measurements; details: in ethanol; measurement concentration 0.00436 mg/ml (Example 4), 0.00048 mg/ml (Example 8), 0.00045 mg/ml (Example 17)
Protocol: The substance concentrations in ethanol indicated in the table are measured using an Aminco Bowman 2 fluorescence spectrometer (cell thickness 1 cm; excitation 220-600 nm; emission 220-800 nm; spectral gap width (excitation) 4 nm, (emission) 8 nm; recording speed 10 nm/min; step width (excitation) 5 nm, (emission) 4 nm.

SMILES	λmax [1]	E1% value [1]	Half-value width [1] [nm]	Solubility in X-Tend 226 [2] [%]	Temperature at which 98% of the weight were still present [3] [° ° C.]	Emission [4] [nm]	Excitation [4] [nm]	thermal stabilities [3]
CCOC1(C)O/C(=C\c2ccc(Oc3ccccc3)cc2)C(=O)/C(=C/c2ccc(Oc3ccccc3)cc2)O1 (stereo not shown) [Example 7, (4Z,6Z)-4,6-bis[(4-phenoxyyphenyl)methylene]-2-ethoxy-2-methyl-1,3-dioxan-5-one]	389	675	84	2.2				
CC1=C(/C=C/C(C)=C/C=C/C(C)=C/C=C/C=C(C)/C=C/C=C(C)/C=C/C2=C(C)CCCC2(C)C)C(C)(C)CCC1 [Beta-carotene, beta-carotene, reference compound]	453	408	88	0.2	84			
CCOC1(C)O/C(=C\c2ccc(OC)cc2)C(=O)/C(=C/c2ccc(OC)cc2)O1 (stereo not shown) [Example 1, (4Z,6Z)-2-ethoxy-4,6-bis[(4-methoxyphenyl)methylene]-2-methyl-1,3-dioxan-5-one]	402	873	84	2.8				
CCCCCCCCOc1ccc(/C=C2\OC(C)(OCC)O/C(=C\c3ccc(OCCCCCCCC)cc3)C2=O)cc1 (stereo not shown) [Example 6, (4Z,6Z)-4,6-bis[(4-octyloxyphenyl)methylene]-2-ethoxy-2-methyl-1,3-dioxan-5-one]	404	557	87	1.0				
COc1cc(/C=C/C(=O)CC(=O)/C=C/c2ccc(O)c(OC)c2)ccc1O [Curcumin, curcumin, reference compound]	426	1507	78	0.4	223			
CCCCN(CCCC)c1ccc(/C=C2\OC(C)(OCC)O/C(=C\c3ccc(N(CCCC)CCCC)cc3)C2=O)cc1 (stereo not shown) [Example 8, (4Z,6Z)-4,6-bis[[(4-dibutylamino)phenyl]methylene]-2-ethoxy-2-methyl-1,3-dioxan-5-one]	486	953	105	2.8	274	640	485	excellent

Further lines, results first:

λmax [1]	E1% value [1]	Half-value width [1] [nm]	Solubility in X-Tend 226 [2] [%]	Temperature at which 98% of the weight were still present [3] [° ° C.]	Emission [4] [nm]	Excitation [4] [nm]	thermal stabilities [3]	SMILES
444	304	92	<0.1	256	596	440	excellent	CCOC1(C)O/C(=C\c2cc(OC)c(OC)cc2OC)C(=O)/C(=C/c2cc(OC)c(OC)cc2OC)O1 (stereo not shown) [Example 4]
394	647	85	1.1					CCOC1(C)O/C(=C\c2cc(OC)c(OC)c(OC)c2)C(=O)/C(=C/c2cc(OC)c(OC)c(OC)c2)O1 (stereo not shown) [Example 5]
412	617	85	1.2					CCOC1(C)O/C(=C\c2ccc(OC)c(OC)c2)C(=O)/C(=C/c2ccc(OC)c(OC)c2)O1 (stereo not shown) [Example 2]
					632	490		CCOC1(C)O/C(=C\c2ccc(N(C)C)cc2OC)C(=O)/C(=C/c2ccc(N(C)C)cc2OC)O1 (stereo not shown) [Example 17, 2-ethoxy-2,6-bis-[1-(4-dimethylamino-2-methoxyphenyl)meth-(Z)ylidene]-2-methyl-1,3-dioxan-5-one]
419	688	93	1.0					CCOC1(C)O/C(=C\c2ccc(OC)cc2OC)C(=O)/C(=C/c2ccc(OC)cc2OC)O1 (stereo not shown) [Example 3]
